US20090170899A1, “Stimulators of 5-HT4 receptors and uses thereof” (priority 2004, published 2009)
Like-named read-outs stand apart in the source and are kept apart here.

Assays:
[1] = system: BrdU-positive cells in the sub-granular zone (SGZ) of the hippocampus; conditions: cited from earlier work
[2] = system: DRN 5-HT neurons; experiment: Reversal by acute prucalopride of the inhibition of DRN 5-HT neuron firing rate induced by i.v. SSRIs; assay type: in vivo, rat; conditions: acute intravenous administration
Source text: FIGS. 6A and 6B illustrate the effect of prucalopride on the inhibition of 5-HT neuronal firing rate induced by SSRIs fluxoamine and citalopram.
In FIGS. 6A and 6B, the firing activity of the 5-HT neuron is suppressed following the acute intravenous administration of the antidepressant SSRIs fluvoxamine and citalopram. This suppression of the firing activity is due to the activation of the 5-HT1A autoreceptors, subsequent to the increase of the concentration of endogenous 5-HT, following the blockade of the 5-HT reuptake sites.

[3] = system: DRN 5-HT neurons; conditions: cited from earlier work

## CNCCC(Oc1ccc(C(F)(F)F)cc1)c1ccccc1 (stereo not drawn) [fluoxetine]
[1]; 14-day treatment, Malberg et al., 2000
  increase of hippocampal neurogenesis: +35%
[1]; Santarelli et al., 2003
  quickest effect reported on hippocampal neurogenesis: 11 days
[1]; at 5 days, Santarelli et al., 2003
  activity on hippocampal neurogenesis: inactive

## COCCCC/C(=N\OCCN)c1ccc(C(F)(F)F)cc1 [fluvoxamine]
[2]
  firing activity of the 5-HT neuron after SSRI: suppressed

## CN1CCN2c3ncccc3Cc3ccccc3C2C1 (stereo not drawn) [mirtazapine]
[3]; acute conditions, Haddjeri et al., 1996
  effect on 5-HT neuron firing rate: increases
[3]; after a 2-day treatment, Besson et al., 2000
  effect on 5-HT neuron firing rate: no longer present
